Patent publication US20070197435A1, “Process for the synchronization of ovulation for timed breeding without heat detection” (priority 2006, published 2007)

Tests used:
[1] = tested on: ovariectomized estrogen primed gilt model; assay: Dose response study of deslorelin in SAIB, LH release determined by RIA; type: in vivo, swine; details: single injection of 50 mcg deslorelin in SAIB
Procedure: A dose response study was performed using deslorelin in SAIB in an ovariectomized estrogen primed gilt model (Barb, et al. (1999) Proceed. Int'l. Symp. Control. Rel. Bioact. Mater., 26).

[2] = tested on: mature postpartum sows; assay: Intravulvar deslorelin at estrus detection, estrus length, pregnancy rate and live piglets; type: in vivo, swine; details: 50 μg deslorelin acetate intravulvar at first estrus detection
Procedure: Sows were assigned randomly in blocks of two to either control or to be injected intravulvar with 50 mcg of deslorelin in SAIB at the time of estrus detection for sows first detected in estrus in the a.m. and 12 hours later for those first detected in estrus in the p.m. Treated animals were bred Al upon detected estrus and again 24 hours later if still in estrus. Controls received a saline injection on first detected estrus behavior estrus detection and were bred according to the farm's normal procedures. Saline sows bred at detected estrus consistent with farm sows. Deslorelin sows injected intravulvar with 1 ml (50 μg deslorelin acetate) at first estrus detection and AI, then AI again if in estrus the next day. Live piglet number 0.6>in Deslorelin versus Saline sows.

## CCNC(=O)[C@@H]1CCCN1C(=O)[C@H](CCCN=C(N)N)NC(=O)[C@H](CC(C)C)NC(=O)[C@@H](Cc1c[nH]c2ccccc12)NC(=O)[C@H](Cc1ccc(O)cc1)NC(=O)[C@H](CO)NC(=O)[C@H](Cc1c[nH]c2ccccc12)NC(=O)[C@H](Cc1cnc[nH]1)NC(=O)[C@@H]1CCC(=O)N1 [Deslorelin, deslorelin]
[1]
  Time by which LH returned to base level: ≤ 18 h
[2]
  Live piglet number, greater in Deslorelin versus Saline sows (per litter): 0.6
